Measurements as given in patent US20200062696A1, “COMPOSITIONS AND METHODS FOR INHIBITING RETICULON 4” (THE REGENTS OF THE UNIVERSITY OF CALIFORNIA, priority 2017, published 2020).

Assays:
[1] = Body weight and overt toxicity of mice in the tumor xenograft study; assay type: in vivo; conditions: 50 mg/kg ip once per day, weighed at the end of the study
Experimental: Mice from tumor xenograft studies shown in FIG. 1E were weighed at the end of the study. […] Data are presented as mean±sem, n=8 mice/group.
Tumor Xenograft Growth Studies. C.B17 SCID male mice (6-8 weeks old) were injected subcutaneously into the flank with 2,000,000 cells in serum-free media. […] Tumors were measured every 7 days by caliper measurements.

[2] = test system: MEF cells expressing human RTN4-GFP; experiment: Apoptosis (propidium iodine and Annexin-V, flow cytometry) in MEF cells expressing human RTN4-GFP; assay type: cell-based, mouse; conditions: DKM 3-30 50 μM, 0, 8 or 16 h
Experimental: FIG. 12. Effect of DKM 3-30 in Mouse Embryonic Fibroblast (MEF) cells expressing human RTN4. C1101 in human RTN4 is instead a serine in mouse RTN4. […] GFP or RTN4-GFP expressing MEF cells were treated with DKM 3-30 (50 μM) for 0, 8, or 16 h and apoptotic cells (propidium iodine positive and Annexin-V positive) were assessed by flow cytometry. Data are presented as mean±sem. Significance is expressed as *p<0.05 compared to 0 h time-point.

C=CC(=O)Nc1ccc(Oc2ccc(Cl)cc2)cc1 [DKM 3-30, N-(4-(4-chlorophenoxy)phenyl)acrylamide]
body weight and signs of overt toxicity [1]: without any changes in body weight or any signs of overt toxicity | apoptosis in MEF cells expressing human RTN4-GFP [2]: induces apoptosis
